According to patent publication US11559579B2 (HealthPartners Research & Education, priority 2014, dated 2023):

Key:
[1] = tested on: Moderate Controlled Cortical Impact Injury Model (TBI); assay: Beam walk motor function test after controlled cortical impact; type: in vivo, Sprague Dawley rats; conditions: day 7 post-injury vs day 1 baseline and vs saline (vehicle) rats on day 7; intranasal, first dose 4 hours post-injury, then once a day; FIG. 1
Text: (§1) 2007 Mar. 15; 160(2):187-96. Onyszchuk, G., et al., J. Neurosci. Methods, 2007, 160(2): p.

[2] = tested on: Moderate Controlled Cortical Impact Injury Model (TBI); assay: Peg walk motor function test after controlled cortical impact; type: in vivo, Sprague Dawley rats; conditions: day 7 vs day 1 baseline and vs saline (vehicle) rats on day 7; intranasal, once a day; FIG. 2
Text: as §1

[3] = tested on: Moderate Controlled Cortical Impact Injury Model (TBI); assay: Morris water maze probe trial after controlled cortical impact; type: in vivo, Sprague Dawley rats; conditions: days 11-14 post-injury
Text: as §1

[4] = tested on: neurons in the hippocampus; assay: NeuN immunohistochemistry of hippocampus post-injury; type: in vivo, Sprague Dawley rats; conditions: after sacrifice on day 8 post-injury; vs saline rats; FIG. 8a/8b
Text: as §1
FIG. 8a illustrates neuronal viability in the saline rat hippocampus.

M2 microglia (CD206) = assay: M2 microglia marker CD206 expression post-injury; type: in vivo, Sprague Dawley rats; conditions: sacrifice on day 8 post-injury; vs intranasal saline rats; FIG. 3
Text: as §1
(§2) Microglia are the macrophages of the brain, with two dominant phenotypes: M1 and M2.
(§3) M1 microglia are classically activated pro-inflammatory cells. M1 microglia are useful in the initial healing process, but persistent activation results in neuronal cell death due to production of reactive oxygen species. M2 microglia are anti-inflammatory, pro-healing macrophages.

M1 microglia (CD86) = assay: M1 microglia marker CD86 expression post-injury; type: in vivo, Sprague Dawley rats; conditions: sacrifice on day 8 post-injury; vs saline rats; FIG. 4
Text: as §1, §2, §3

[5] = intranasal insulin; normal adults and patients with Alzheimer's disease; cited from earlier work

Substance: insulin
- time to cross the beam (beam walk) [1]: significant decrease in time
- peg walk motor function [2]: positive trend towards improved motor function
- search strategy (Morris water maze probe trial) ([3]; insulin vs saline (vehicle) treated rats, FIG. 7): saline (vehicle) treated rats utilized significantly less targeted search methods (looping) than insulin rats
- number of crosses of the target island region (Morris water maze probe trial) ([3]; vs saline (vehicle) treated rats, FIG. 6): significant increase in the number of crosses of the target island region
- neuronal viability in the hippocampus (NeuN) [4]: improved neuronal viability in the hippocampus
- M2 microglia, expression of CD206 (M2 microglia (CD206)): significant increase in M2 microglia
- M1 microglia markers, expression of CD86 (M1 microglia (CD86)): no significant increase in expression of M1 microglia markers
- memory [5]: improve memory
